Reference: patent publication US20240409585A1, “MACROCYCLIC IMMUNOMODULATORS” (priority 2021, published 2024)
Bridge positions count the residues as written; N and C are the ends. Square brackets hold non-standard residues; d marks the D form. Peptide text beside a SMILES is read from it. * marks the point of attachment. Phe(3-OCH2COOH) = N[C@@H](Cc1cccc(OCC(=O)O)c1)C(=O)O; Phe(4-COOH) = N[C@@H](Cc1ccc(C(=O)O)cc1)C(=O)O; Bip = N[C@@H](Cc1ccc(-c2ccccc2)cc1)C(=O)O; NMeW = CN[C@@H](Cc1c[nH]c2ccccc12)C(=O)O; Phe(3-CN) = N#Cc1cccc(C[C@H](N)C(=O)O)c1; Morpholine(3S-CO) = O=C(O)[C@@H]1COCCN1; Phe(3-Me) = Cc1cccc(C[C@H](N)C(=O)O)c1; NMeY = CN[C@@H](Cc1ccc(O)cc1)C(=O)O; NMePhg = CN[C@H](C(=O)O)c1ccccc1; 3Pal = N[C@@H](Cc1cccnc1)C(=O)O; NMeL = CN[C@@H](CC(C)C)C(=O)O; NMeNle = CCCC[C@H](NC)C(=O)O; NMeNva = CCC[C@H](NC)C(=O)O; NMeS = CN[C@@H](CO)C(=O)O; Carboxymethyl = O=C(O)C*; NMeA = CN[C@@H](C)C(=O)O; Orn = NCCC[C@H](N)C(=O)O; Dab = NCC[C@H](N)C(=O)O

The molecules below were run against T1, PE-labeled human PD-L1-Ig binding to Jurkat cell line over-expressing human PD-1 (Jurkat-PD-1) (Homo sapiens, UniProt Q15116) (assay: Jurkat-PD-1 Cell Binding High-Content Screening Assay (CBA): Method 1). Conditions: Jurkat-hPD-1 cells, PE-labeled PD-L1-Ig 20 nM final; read-out: Jurkat HPDL1 PD1 IC50 (uM) (Method 1).
T1 construct: expressed in transfected cells; host or cells: Jurkat
T1 sequence (Q15116 25-288): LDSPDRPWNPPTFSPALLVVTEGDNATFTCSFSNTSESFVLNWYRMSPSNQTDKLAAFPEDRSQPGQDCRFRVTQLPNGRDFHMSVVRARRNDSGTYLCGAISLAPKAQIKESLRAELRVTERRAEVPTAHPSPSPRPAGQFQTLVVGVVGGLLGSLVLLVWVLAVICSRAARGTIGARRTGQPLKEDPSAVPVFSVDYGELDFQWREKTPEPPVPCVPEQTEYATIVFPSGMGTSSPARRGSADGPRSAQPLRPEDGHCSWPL

| IC50 | SMILES |
| --- | --- |
| 0.11 µM | CC(C)C[C@@H]1NC(=O)[C@H](CCN)NC(=O)[C@@H](CC(C)C)NC(=O)[C@H](C)N(C)C(=O)[C@H](CCCN)NC(=O)[C@H](Cc2ccc(-c3ccccc3)cc2)NC(=O)[C@H](C(C)C)NC(=O)[C@H](Cc2c[nH]c3ccccc23)NC(=O)[C@H](CC(=O)O)NC(=O)[C@H](Cc2ccc(O)cc2)NC(=O)[C@H](CCC(N)=O)NC(=O)CSC[C@@H](C(=O)N[C@@H](C)C(N)=O)NC(=O)[C@H]([C@@H](C)O)NC(=O)[C@H](C(C)C)NC1=O [Compound 1363] ({CH2CO}-QYDWV[Bip][Orn][NMeA][dL][Dab]LVTCA-NH2; thioether N-14) |
| 0.01 µM | CC(C)C[C@@H]1NC(=O)[C@H](CCN)NC(=O)[C@@H](CC(C)C)NC(=O)[C@H](Cc2ccc(O)cc2)N(C)C(=O)[C@H](C(C)C)NC(=O)[C@H](Cc2ccc(-c3ccccc3)cc2)NC(=O)[C@H](C(C)C)NC(=O)[C@H](Cc2c[nH]c3ccccc23)NC(=O)[C@H](CC(=O)O)NC(=O)[C@H](Cc2ccc(O)cc2)NC(=O)[C@H](CC(N)=O)NC(=O)CSC[C@@H](C(=O)N[C@@H](C)C(N)=O)NC(=O)[C@H]([C@@H](C)O)NC(=O)[C@H](C(C)C)NC1=O [Compound 1364] ({CH2CO}-NYDWV[Bip]V[NMeY][dL][Dab]LVTCA-NH2; thioether N-14) |
| 0.01 µM | CCCC[C@H]1C(=O)N[C@H](CC(C)C)C(=O)N[C@@H](CCN)C(=O)N[C@@H](CC(C)C)C(=O)N[C@@H](C(C)C)C(=O)N[C@@H]([C@@H](C)O)C(=O)N[C@H](C(=O)N[C@@H](C)C(N)=O)CSCC(=O)N[C@@H](CC(N)=O)C(=O)N[C@@H](Cc2ccc(O)cc2)C(=O)N[C@@H](CC(=O)O)C(=O)N[C@@H](Cc2c[nH]c3ccccc23)C(=O)N[C@@H](C(C)C)C(=O)N[C@@H](Cc2ccc(-c3ccccc3)cc2)C(=O)N[C@@H](C(C)C)C(=O)N1C [Compound 1365] ({CH2CO}-NYDWV[Bip]V[NMeNle][dL][Dab]LVTCA-NH2; thioether N-14) |
| 0.03 µM | CC(C)C[C@@H]1NC(=O)[C@H](CCN)NC(=O)[C@@H](CC(C)C)NC(=O)[C@H](c2ccccc2)N(C)C(=O)[C@H](C(C)C)NC(=O)[C@H](Cc2ccc(-c3ccccc3)cc2)NC(=O)[C@H](C(C)C)NC(=O)[C@H](Cc2c[nH]c3ccccc23)NC(=O)[C@H](CC(=O)O)NC(=O)[C@H](Cc2ccc(O)cc2)NC(=O)[C@H](CC(N)=O)NC(=O)CSC[C@@H](C(=O)N[C@@H](C)C(N)=O)NC(=O)[C@H]([C@@H](C)O)NC(=O)[C@H](C(C)C)NC1=O [Compound 1366] ({CH2CO}-NYDWV[Bip]V[NMePhg][dL][Dab]LVTCA-NH2; thioether N-14) |
| 0.39 µM | CC(C)C[C@@H]1NC(=O)[C@H](CCN)NC(=O)[C@@H](CC(C)C)NC(=O)[C@@H]2COCCN2C(=O)[C@H](C(C)C)NC(=O)[C@H](Cc2ccc(-c3ccccc3)cc2)NC(=O)[C@H](C(C)C)NC(=O)[C@H](Cc2c[nH]c3ccccc23)NC(=O)[C@H](CC(=O)O)NC(=O)[C@H](Cc2ccc(O)cc2)NC(=O)[C@H](CC(N)=O)NC(=O)CSC[C@@H](C(=O)N[C@@H](C)C(N)=O)NC(=O)[C@H]([C@@H](C)O)NC(=O)[C@H](C(C)C)NC1=O [Compound 1367] ({CH2CO}-NYDWV[Bip]V[Morpholine(3S-CO)][dL][Dab]LVTCA-NH2; thioether N-14) |
| 0.13 µM | CC(C)C[C@@H]1NC(=O)[C@H](CCN)NC(=O)[C@@H](CC(C)C)NC(=O)[C@H](Cc2c[nH]c3ccccc23)N(C)C(=O)[C@H](C(C)C)NC(=O)[C@H](Cc2ccc(-c3ccccc3)cc2)NC(=O)[C@H](C(C)C)NC(=O)[C@H](Cc2c[nH]c3ccccc23)NC(=O)[C@H](CC(=O)O)NC(=O)[C@H](Cc2ccc(O)cc2)NC(=O)[C@H](CC(N)=O)NC(=O)CSC[C@@H](C(=O)N[C@@H](C)C(N)=O)NC(=O)[C@H]([C@@H](C)O)NC(=O)[C@H](C(C)C)NC1=O [Compound 1368] ({CH2CO}-NYDWV[Bip]V[NMeW][dL][Dab]LVTCA-NH2; thioether N-14) |
| 0.03 µM | CCC[C@H]1C(=O)N[C@H](CC(C)C)C(=O)N[C@@H](CCN)C(=O)N[C@@H](CC(C)C)C(=O)N[C@@H](C(C)C)C(=O)N[C@@H]([C@@H](C)O)C(=O)N[C@H](C(=O)N[C@@H](C)C(N)=O)CSCC(=O)N[C@@H](CC(N)=O)C(=O)N[C@@H](Cc2ccc(O)cc2)C(=O)N[C@@H](CC(=O)O)C(=O)N[C@@H](Cc2c[nH]c3ccccc23)C(=O)N[C@@H](C(C)C)C(=O)N[C@@H](Cc2ccc(-c3ccccc3)cc2)C(=O)N[C@@H](C(C)C)C(=O)N1C [Compound 1369] ({CH2CO}-NYDWV[Bip]V[NMeNva][dL][Dab]LVTCA-NH2; thioether N-14) |
| 0.01 µM | CC(C)C[C@@H]1NC(=O)[C@H](CCN)NC(=O)[C@@H](CC(C)C)NC(=O)[C@H](CO)N(C)C(=O)[C@H](C(C)C)NC(=O)[C@H](Cc2ccc(-c3ccccc3)cc2)NC(=O)[C@H](C(C)C)NC(=O)[C@H](Cc2c[nH]c3ccccc23)NC(=O)[C@H](CC(=O)O)NC(=O)[C@H](Cc2ccc(O)cc2)NC(=O)[C@H](CC(N)=O)NC(=O)CSC[C@@H](C(=O)N[C@@H](C)C(N)=O)NC(=O)[C@H]([C@@H](C)O)NC(=O)[C@H](C(C)C)NC1=O [Compound 1370] ({CH2CO}-NYDWV[Bip]V[NMeS][dL][Dab]LVTCA-NH2; thioether N-14) |
| 0.03 µM | CC(C)C[C@@H]1NC(=O)[C@H](CCN)NC(=O)[C@@H](CC(C)C)NC(=O)[C@H](CC(C)C)N(C)C(=O)[C@H](C(C)C)NC(=O)[C@H](Cc2ccc(-c3ccccc3)cc2)NC(=O)[C@H](C(C)C)NC(=O)[C@H](Cc2c[nH]c3ccccc23)NC(=O)[C@H](CC(=O)O)NC(=O)[C@H](Cc2ccc(O)cc2)NC(=O)[C@H](CC(N)=O)NC(=O)CSC[C@@H](C(=O)N[C@@H](C)C(N)=O)NC(=O)[C@H]([C@@H](C)O)NC(=O)[C@H](C(C)C)NC1=O [Compound 1371] ({CH2CO}-NYDWV[Bip]V[NMeL][dL][Dab]LVTCA-NH2; thioether N-14) |
| 0.14 µM | CC(C)C[C@@H]1NC(=O)[C@H](CCN)NC(=O)[C@@H](CC(C)C)NC(=O)[C@H](C)N(C)C(=O)[C@H](CCCNC(=N)N)NC(=O)[C@H](Cc2ccc(-c3ccccc3)cc2)NC(=O)[C@H](C(C)C)NC(=O)[C@H](Cc2c[nH]c3ccccc23)NC(=O)[C@H](CC(=O)O)NC(=O)[C@H](Cc2cccc(OCC(=O)O)c2)NC(=O)[C@H](CC(N)=O)NC(=O)CSC[C@@H](C(=O)N[C@@H](C)C(N)=O)NC(=O)[C@H]([C@@H](C)O)NC(=O)[C@H](C(C)C)NC1=O [Compound 1372] ({CH2CO}-N[Phe(3-OCH2COOH)]DWV[Bip]R[NMeA][dL][Dab]LVTCA-NH2; thioether N-14) |
| 0.04 µM | CC(C)C[C@@H]1NC(=O)[C@H](CCN)NC(=O)[C@@H](CC(C)C)NC(=O)[C@H](C)N(C)C(=O)[C@H](Cc2cnc[nH]2)NC(=O)[C@H](Cc2ccc(-c3ccccc3)cc2)NC(=O)[C@H](C(C)C)NC(=O)[C@H](Cc2c[nH]c3ccccc23)NC(=O)[C@H](CC(=O)O)NC(=O)[C@H](Cc2ccc(O)cc2)NC(=O)[C@H](Cc2cccnc2)NC(=O)CSC[C@@H](C(=O)N[C@@H](C)C(N)=O)NC(=O)[C@H]([C@@H](C)O)NC(=O)[C@H](C(C)C)NC1=O [Compound 1374] ({CH2CO}-[3Pal]YDWV[Bip]H[NMeA][dL][Dab]LVTCA-NH2; thioether N-14) |
| 0.05 µM | CC(C)C[C@@H]1NC(=O)[C@H](CCN)NC(=O)[C@@H](CC(C)C)NC(=O)[C@H](C)N(C)C(=O)[C@H](Cc2cnc[nH]2)NC(=O)[C@H](Cc2ccc(-c3ccccc3)cc2)NC(=O)[C@H](C(C)C)NC(=O)[C@H](Cc2c[nH]c3ccccc23)NC(=O)[C@H](CC(=O)O)NC(=O)[C@H](Cc2cccc(C#N)c2)NC(=O)[C@H](CC(N)=O)NC(=O)CSC[C@@H](C(=O)N[C@@H](C)C(N)=O)NC(=O)[C@H]([C@@H](C)O)NC(=O)[C@H](C(C)C)NC1=O [Compound 1375] ({CH2CO}-N[Phe(3-CN)]DWV[Bip]H[NMeA][dL][Dab]LVTCA-NH2; thioether N-14) |
| 0.02 µM | Cc1cccc(C[C@@H]2NC(=O)[C@H](CC(=O)O)NC(=O)[C@H](Cc3ccc(O)cc3)NC(=O)[C@H](CC(N)=O)NC(=O)CSC[C@@H](C(=O)N[C@@H](C)C(N)=O)NC(=O)[C@H]([C@@H](C)O)NC(=O)[C@H](C(C)C)NC(=O)[C@H](CC(C)C)NC(=O)[C@H](CCN)NC(=O)[C@@H](CC(C)C)NC(=O)[C@H](C)N(C)C(=O)[C@H](Cc3cnc[nH]3)NC(=O)[C@H](Cc3ccc(-c4ccccc4)cc3)NC(=O)[C@H](C(C)C)NC2=O)c1 [Compound 1376] ({CH2CO}-NYD[Phe(3-Me)]V[Bip]H[NMeA][dL][Dab]LVTCA-NH2; thioether N-14) |
| 0.02 µM | CC(C)C[C@@H]1NC(=O)[C@H](CCN)NC(=O)[C@@H](CC(C)C)NC(=O)[C@H](C)N(C)C(=O)[C@H](C(C)C)NC(=O)[C@H](Cc2ccc(-c3ccccc3)cc2)NC(=O)[C@H](C(C)C)NC(=O)[C@H](Cc2c[nH]c3ccccc23)NC(=O)[C@H](CC(=O)O)NC(=O)[C@H](Cc2ccc(OCC(=O)O)cc2)NC(=O)[C@H](CC(N)=O)NC(=O)CSC[C@@H](C(=O)N[C@@H](C)C(N)=O)NC(=O)[C@H]([C@@H](C)O)NC(=O)[C@H](C(C)C)NC1=O [Compound 1377] ({CH2CO}-NY(Carboxymethyl)DWV[Bip]V[NMeA][dL][Dab]LVTCA-NH2; thioether N-14) |
| 0.01 µM | CC(C)C[C@@H]1NC(=O)[C@H](CCN)NC(=O)[C@@H](CC(C)C)NC(=O)[C@H](C)N(C)C(=O)[C@H](C(C)C)NC(=O)[C@H](Cc2ccc(-c3ccccc3)cc2)NC(=O)[C@H](C(C)C)NC(=O)[C@H](Cc2c[nH]c3ccccc23)NC(=O)[C@H](CC(=O)O)NC(=O)[C@H](Cc2ccc(C(=O)O)cc2)NC(=O)[C@H](CC(N)=O)NC(=O)CSC[C@@H](C(=O)N[C@@H](C)C(N)=O)NC(=O)[C@H]([C@@H](C)O)NC(=O)[C@H](C(C)C)NC1=O [Compound 1378] ({CH2CO}-N[Phe(4-COOH)]DWV[Bip]V[NMeA][dL][Dab]LVTCA-NH2; thioether N-14) |
